The text below walks through data of patent US7183320B2, “Benzoylsulfonamides and sulfonylbenzamidines for use as antitumour agents” (Eli Lilly and Company, priority 2002, dated 2007).

As a reminder, the IC50 is the point on the concentration scale where inhibition reaches its midpoint. Read a low IC50 as inhibition by little substance.

Series [1] deals with VEGF-induced neoangiogenesis. The series can be described thus: Rat corneal micropocket assay, VEGF disks. It is filed as in vivo. The settings on record: 160 mg/kg orally by gavage once per day, days 1 through 10; Fisher 344 female rats. As for the experimental part:
Rat Corneal Micropocket Assay
Fisher 344 female rats (145–155 grams; Taconic, Inc., Germantown, N.Y.) were anesthesized with acepromazine (2.5 mg/kg, ip) 20 minutes prior to initiation of 2–3% isoflurane/oxygen inhalation. The body temperature was maintained with a circulating hot water pad. The surgery was performed using an ophthalmic operating microscope (OMS.75 Operating Microscope, TopCon Corporation, Japan). A scalpel blade (#15) was used to make a vertical half-thickness linear corneal incision just lateral to the center of the eye. […] A pocket was formed in the cornea using blunt dissection with corneal scissors (Roboz, Rockville, Md.). Nitrocellulose filters ([…], Millipore, Bedford, Mass.) were cut into small disks using a 20 gauge needle punch. The disks were soaked in 2 μl of human VEGF solution ([…]; R&D Systems) or human basic fibroblast growth factor (0.20 μg/μl; R&D Systems) for 10 minutes on ice. Using forceps, the disks impregnated with the angiogenic factor (VEGF or bFGF) were inserted into the corneal pocket so that the disk is firmly covered with corneal epithelium. […] The images were analyzed by converting the area of interest to high contrast black and white reversed image and counting the bright pixels as a determination of the vascular area. […]

Series [2] relates to HCT116 colon carcinoma cells. In words: HCT116 colon carcinoma cell growth inhibition (WST-1, 72 hr). The settings on record: Homo sapiens, HCT-116, 72 hr exposure. It is filed as cell-based, human. As for the experimental part: HCT116 Colon Carcinoma Cell Growth Inhibition
HCT116 colon carcinoma cells were grown monolayer culture in RPMI 1640 medium supplemented with 10% fetal bovine serum and 1% penicillin-streptomycin (GibcoBRL, Grand Island, N.Y.). HCT116 cells in exponential growth phase were exposed to various concentrations of the test compounds at 37° C. for 72 hr in 5% carbon dioxide/air. After exposure to the agent, the cells were washed with 0.9% phosphate buffered saline. Growth inhibition was determined using WST-1 cell proliferation reagent as described above. The results are expressed as the growth fraction of treated cells compared with control cultures. Representative compounds of the present invention were tested for efficacy against the human colon HCT116 tumor cells.
In general terms: Formazan colour is commonly taken as a measure of viable cells.

For series [3], the system named is MURINE COLON ADENOCARCINOMA-38. The series can be described thus: Early stage murine colon adenocarcinoma-38 (Table II). It is filed as in vivo. The settings on record: BDF1 male mice. From the text: Conventional Murine Tumor and Human Tumor Xenouraft Assays
Inhibition of tumors transplanted into mice is an accepted procedure for studying the efficacy of antitumor agents (Corbett, et al., In vivo Methods for Screening and Preclinical Testing; Use of rodent solid tumors for drug discovery., In: Anticancer Drug Development Guide: Preclinical Screening, Clinical Trials, and Approval, B. Teicher (ed), Humana Press Inc., Totowa, N.J., Chapter 5, pages 75–99 (1997); (Corbett, et al., Int., J. Parmacog., 33, Supplement, 102–122 (1995)). Murine tumors or human xenographs were implanted essentially as described by Corbett in In vivo Methods for Screening and Preclimical Testing; Use of rodent solid tumors for drug discovery. Briefly, the murine tumor or human xenograph was implanted subcutaneously using either 12-gauge trocar implants or counted number of cells. The location for the trocar insertion is midway between the axillary and inguinal region along the side of the mouse. The trocar is slipped approximately ¾ of an inch subcutaneously up toward the axilla before discharging the tumor fragment, and pinching the skin as the trocar is removed., Alternatively, human tumor cells prepared from a […] of donor tumors (5×10^6 cells) were implanted subcutaneously in a hind-leg of a male or female nude mouse (Charles River). Either a test compound in vehicle or vehicle alone was administered by intravenous bolus injection (iv), intraperitoneal injection (ip), or oral gavage (po). Each treatment group, as well as a group of untreated control animals, consisted of five animals per group in each experiment. Subcutaneous tumor response was monitored by tumor volume measurement performed twice each week over the course of the experiment (60–120 days). Body weights were taken as a general measure of toxicity. The subcutaneous tumor data were analyzed by determining the median tumor weight for each treatment group over the course of the experiment and calculating the tumor growth delay as the difference in days for the treatment versus the control tumors to reach a volume of either 500 or 1000 mm^3.
The compound of Example 110 was tested against a variety of murine and human tumors substantially as described supra. The parameters measured in each experiment are summarized in the following paragraphs. • Tumor Weight(mg)=(a×b^2)/2 where a=tumor length (mm) and b=tumor width (mm). • Tumor Growth Delay=T−C where T is the median time (days) required for the treatment group tumors to reach a predetermined size, and C is the median time (days) for the control group tumors to reach the same size. Tumor-free survivors are excluded from this calculation, and are tabulated separately (Tumor Free).
[formula] • where Tumor Growth Delay is as previously defined and Td is tumor volume doubling time (days), estimated from the best fit straight line from a log-linear growth plot of the control group of tumors in exponential growth (100–800 mg range) • % T/C mass—The treatment and control groups are measured when the control group tumors reach approximately 700 to 1200 mg in size (median group). The median tumor weight of each group is determined (including zeros). The T/C value in percent is an indication of antitumor effectiveness. A T/C≦42% is considered significant antitumor activity. A T/C<10% is considered to indicate highly significant antitumor activity. • Body Weight Loss Nadir—A body weight loss nadir (mean of group) of greater than 20% or drug deaths greater than 20% are considered to indicate an excessively toxic dosage in single course trials. • Activity Rating—the Activity Rating is derived from the Log Kill according to the following table: […]

[4] abbreviates: total dose 272 mg/kg IV: 20 mg/kg day 3, 40 day 4, 106 mg/kg/injection QD days 5–6.
The mark [5] stands for this setting: total dose 920 mg/kg IV: 40 mg/kg day 3, 80 day 4, 160 mg/kg/injection QD days 5–9.
The mark [6] stands for this setting: total dose 1200 mg/kg IV: 80 mg/kg day 3, 160 day 4, 240 day 5, 120 mg/kg/injection BID days 7–9.

As for `O=C(NS(=O)(=O)c1ccccc1)c1ccc(Cl)cc1Cl` [Example 110, N-[2,4-dichlorobenzoyl]phenylsulfonamide], the “inhibition of VEGF-induced neoangiogenesis” value in series [1] is listed as “very effective inhibitor”. Further, the IC50 in series [2] came out at 3.5 µM. In series [3] (setting [4]), the “% BODY WT LOSS AT NADIR” value was “+3.1%”, the “% T/C MASS” value is recorded as 0%, the “ACTIVITY RATING” value is “++++ (HIGHLY ACTIVE >2.8)” and the “DRUG DEATHS” value is given as 0/5. Moreover, in series [3] (setting [4]), the “GROWTH DELAY (DAYS)” value was “All cures”, the “LOG KILL” value was greater than 4.5 and the “TUMOR FREE AT DAY 144” value was 5/5. In addition, in series [3] (setting [5]), the “% BODY WT LOSS AT NADIR” value is “+7.7%”, the “% T/C MASS” value is recorded as 0%, the “ACTIVITY RATING” value is recorded as “++++ (HIGHLY ACTIVE >2.8)” and the “DRUG DEATHS” value was 0/5. Further, in series [3] (setting [5]), the “GROWTH DELAY (DAYS)” value is “All cures”, the “LOG KILL” value was greater than 4.5 and the “TUMOR FREE AT DAY 144” value is recorded as 5/5. Further, in series [3] (setting [6]), the “% BODY WT LOSS AT NADIR” value is −5.2%, the “% T/C MASS” value worked out at 0%, the “ACTIVITY RATING” value is “++++ (HIGHLY ACTIVE >2.8)” and the “GROWTH DELAY (DAYS)” value was “All cures”. In series [3] (setting [6]), the “LOG KILL” value was greater than 4.5 and the “TUMOR FREE AT DAY 144” value is 6/6.
